Tested on: P388
Test: Cytotoxicity against mouse P388 cells
Type: functional, cell-based

SMILES	IC50 [µg/mL]
C1=C\CCCCCC[C@@H]2CN3CC/C=C/C=C\CCCCc4cc(c[n+](c4)CC\C=C/1)[C@@H]2CC3.O=C(O)C(F)(F)F.O=C([O-])C(F)(F)F [TETRADEHYDROHALICYCLAMINE A]	2.2
C1=C2CCCC/C=C\C=C\CCN3CC[C@@H]4[C@H](CCCCCC/C=C\C=C/CCN(C2)C[C@H]14)C3.O=C(O)C(F)(F)F.O=C(O)C(F)(F)F [HALICYCLAMINE A TFA]	0.45
